According to article PMC10746280, “Bacterial efflux pump modulators prevent bacterial growth in macrophages and under broth conditions that mimic the host environment” (mBio, 2023):

Assays:
RAW 264.7 macrophages = assay: SAFIRE macrophage assay: host toxicity (adherent macrophage count, morphology); assay type: cell-based
Procedure, shortened: (§1)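 RAW 264.7 macrophages infected with S. Typhimurium SL1344 sifB::gfp (MOI ~30), gentamicin 40 µg/mL, then compound from 2 h to 18 h post-infection. Confocal imaging with MitoTracker and DAPI; toxicity as adherent MitoTracker-positive macrophage count, bacterial load as GFP+ macrophage area.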

[1] = system: S. Typhimurium SL1344 (sifB::gfp) in RAW 264.7 macrophages; assay: SAFIRE macrophage assay: intracellular bacterial load (GFP signal within macrophages); assay type: cell-based, Salmonella enterica serotype Typhimurium; details: 'Toxic' given instead of a score
Procedure, shortened: as §1

OC(CNCc1ccc2c(c1)OC(F)(F)O2)COc1ccc(Cl)c(Cl)c1 (stereo not shown) [CU134]
5 uM Avg Cell # Score (RAW 264.7 macrophages): 84 | 25 uM Avg Cell # Score (RAW 264.7 macrophages): 91 | 5 uM Avg Antibacterial Score [1]: 61 | 25 uM Avg Antibacterial Score [1]: Toxic

Cc1cc(CNCC(O)COc2ccc(Cl)c(Cl)c2)sc1C (stereo not shown) [CU135]
5 uM Avg Cell # Score (RAW 264.7 macrophages): 75 | 25 uM Avg Cell # Score (RAW 264.7 macrophages): 103 | 5 uM Avg Antibacterial Score [1]: 52 | 25 uM Avg Antibacterial Score [1]: Toxic

OC(COc1ccc(Cl)c(Cl)c1)CN1Cc2ccccc2C1 (stereo not shown) [CU136]
5 uM Avg Cell # Score (RAW 264.7 macrophages): 83 | 25 uM Avg Cell # Score (RAW 264.7 macrophages): 63 | 5 uM Avg Antibacterial Score [1]: 102 | 25 uM Avg Antibacterial Score [1]: 60

O[C@H](COc1ccc(Cl)c(Cl)c1)CN1CCC(Nc2nccc(C(F)(F)F)n2)CC1 [CU137]
5 uM Avg Cell # Score (RAW 264.7 macrophages): 91 | 25 uM Avg Cell # Score (RAW 264.7 macrophages): 67 | 5 uM Avg Antibacterial Score [1]: 5.37 | 25 uM Avg Antibacterial Score [1]: Toxic

O[C@@H](COc1ccc(Cl)c(Cl)c1)CN1CCC(Nc2nccc(C(F)(F)F)n2)CC1 [CU138]
5 uM Avg Cell # Score (RAW 264.7 macrophages): 85 | 25 uM Avg Cell # Score (RAW 264.7 macrophages): 75 | 5 uM Avg Antibacterial Score [1]: 7 | 25 uM Avg Antibacterial Score [1]: Toxic

OC(COc1ccccc1F)CN1CCC(Nc2nccc(C(F)(F)F)n2)C1 (stereo not shown) [CU139]
5 uM Avg Cell # Score (RAW 264.7 macrophages): 95 | 25 uM Avg Cell # Score (RAW 264.7 macrophages): 73 | 5 uM Avg Antibacterial Score [1]: 99 | 25 uM Avg Antibacterial Score [1]: 28

OC(COc1ccc(Cl)cc1)CN1CCC(NC2CC2)C1 (stereo not shown) [CU140]
5 uM Avg Cell # Score (RAW 264.7 macrophages): 122 | 25 uM Avg Cell # Score (RAW 264.7 macrophages): 130 | 5 uM Avg Antibacterial Score [1]: 87 | 25 uM Avg Antibacterial Score [1]: 73

OC(COc1ccccc1Cl)CN1CCC(NC2CC2)C1 (stereo not shown) [CU141]
5 uM Avg Cell # Score (RAW 264.7 macrophages): 116 | 25 uM Avg Cell # Score (RAW 264.7 macrophages): 137 | 5 uM Avg Antibacterial Score [1]: 81 | 25 uM Avg Antibacterial Score [1]: 79

CN(C)C1CCN(CC(O)COc2ccc(Cl)c(Cl)c2)C1 (stereo not shown) [CU142]
5 uM Avg Cell # Score (RAW 264.7 macrophages): 104 | 25 uM Avg Cell # Score (RAW 264.7 macrophages): 113 | 5 uM Avg Antibacterial Score [1]: 77 | 25 uM Avg Antibacterial Score [1]: 47

CN(CC(O)COc1ccc(Cl)c(Cl)c1)C1CCNC1 (stereo not shown) [CU143]
5 uM Avg Cell # Score (RAW 264.7 macrophages): 113 | 25 uM Avg Cell # Score (RAW 264.7 macrophages): 117 | 5 uM Avg Antibacterial Score [1]: 84 | 25 uM Avg Antibacterial Score [1]: 55

NC1CCCN(CC(O)COc2ccc(Cl)c(Cl)c2)C1 (stereo not shown) [CU144]
5 uM Avg Cell # Score (RAW 264.7 macrophages): 99 | 25 uM Avg Cell # Score (RAW 264.7 macrophages): 105 | 5 uM Avg Antibacterial Score [1]: 63 | 25 uM Avg Antibacterial Score [1]: 29

OC(COc1ccc(Cl)c(Cl)c1)CN1CCCNCC1 (stereo not shown) [CU145]
5 uM Avg Cell # Score (RAW 264.7 macrophages): 94 | 25 uM Avg Cell # Score (RAW 264.7 macrophages): 120 | 5 uM Avg Antibacterial Score [1]: 69 | 25 uM Avg Antibacterial Score [1]: 39

O=C1OC(COc2ccc(Cl)c(Cl)c2)CN1C1CCNC1 (stereo not shown) [CU146]
5 uM Avg Cell # Score (RAW 264.7 macrophages): 95 | 25 uM Avg Cell # Score (RAW 264.7 macrophages): 117 | 5 uM Avg Antibacterial Score [1]: 89 | 25 uM Avg Antibacterial Score [1]: 51

CSc1ccc(OCC(O)CN2CCC(Nc3nccc(C(F)(F)F)n3)CC2)cc1 (stereo not shown) [CU147]
5 uM Avg Cell # Score (RAW 264.7 macrophages): 121 | 25 uM Avg Cell # Score (RAW 264.7 macrophages): 43 | 5 uM Avg Antibacterial Score [1]: 72 | 25 uM Avg Antibacterial Score [1]: Toxic

Cc1ccc(Cl)c(OCC(O)CN2CCC(Nc3nccc(C(F)(F)F)n3)CC2)c1 (stereo not shown) [CU148]
5 uM Avg Cell # Score (RAW 264.7 macrophages): 123 | 25 uM Avg Cell # Score (RAW 264.7 macrophages): 39 | 5 uM Avg Antibacterial Score [1]: 48 | 25 uM Avg Antibacterial Score [1]: Toxic

OC(COc1ccc(Cl)c(Cl)c1)CN1CCC2(CCN2)C1 (stereo not shown) [CU149]
5 uM Avg Cell # Score (RAW 264.7 macrophages): 128 | 25 uM Avg Cell # Score (RAW 264.7 macrophages): 108 | 5 uM Avg Antibacterial Score [1]: 73 | 25 uM Avg Antibacterial Score [1]: 53

NC1CCN(CC(O)COc2ccccc2)C1 (stereo not shown) [CU151]
5 uM Avg Cell # Score (RAW 264.7 macrophages): 128 | 25 uM Avg Cell # Score (RAW 264.7 macrophages): 147 | 5 uM Avg Antibacterial Score [1]: 108 | 25 uM Avg Antibacterial Score [1]: 91

COc1ccc(OCC(O)CN2CCC(N)C2)cc1 (stereo not shown) [CU152]
5 uM Avg Cell # Score (RAW 264.7 macrophages): 116 | 25 uM Avg Cell # Score (RAW 264.7 macrophages): 142 | 5 uM Avg Antibacterial Score [1]: 103 | 25 uM Avg Antibacterial Score [1]: 91

NC1CCN(CC(O)COc2ccc(F)cc2)C1 (stereo not shown) [CU153]
5 uM Avg Cell # Score (RAW 264.7 macrophages): 103 | 25 uM Avg Cell # Score (RAW 264.7 macrophages): 131 | 5 uM Avg Antibacterial Score [1]: 106 | 25 uM Avg Antibacterial Score [1]: 85
